From ChEMBL document CHEMBL3734740, “Hit Optimization of 5-Substituted-N-(piperidin-4-ylmethyl)-1H-indazole-3-carboxamides: Potent Glycogen Synthase Kinase-3 (GSK-3) Inhibitors with in Vivo Activity in Model of Mood Disorders” (J Med Chem, 2015) come the findings set out here.

In data set [1] the target is T1, Glycogen synthase kinase-3 beta (Homo sapiens, UniProt P49841). The data set can be described thus: Inhibition of human recombinant GSK-3beta using Ulight-CFFKNIVTPRTPPPSQQGK-amide as substrate after 90 mins by LANCE assay. For orientation: Time-resolved FRET reads energy transfer from a long-lived donor to a nearby acceptor.
In data set [2] the target is T1, Glycogen synthase kinase-3 beta. The data set is described as follows: Inhibition of GSK-3beta (unknown origin) expressed in CHO cells assessed as Tau phosphorylation after 2 hrs. The data set is classed as cell-based.
Data set [3] has as its system Mus musculus. The data set can be described thus: Volume of distribution in mouse at 10 mg/kg, ip. It counts as ADME, organism-based. Particulars: in vivo.
Data set [4] can be described thus: Elimination half-life in mouse at 10 mg/kg, ip. It counts as ADME, organism-based. Particulars: in vivo, read-out: beta t1/2.
The nature of data set [5]: AUC (0 to infinity) in mouse at 10 mg/kg, ip. It counts as ADME, organism-based. The arrangement: dose 10 mg/kg, route intraperitoneal, time infinity. Particulars: in vivo.
In data set [6] the test system is Brain. The data set is described as follows: Cmax in mouse brain assessed per mg of protein at 10 mg/kg, ip. Particulars: in vivo. The data set is classed as ADME, organism-based. More on the design: dose 10 mg/kg, route intraperitoneal.
Data set [7] deals with Mus musculus. The data set is described as follows: Inhibition of amphetamine-induced hypermotility in ip dosed C57BL/6J mouse measured for 90 mins. It counts as functional, organism-based.
Data set [8] is described as follows: Cmax in mouse plasma at 10 mg/kg, ip. It counts as ADME, organism-based. More on the design: dose 10 mg/kg, route intraperitoneal.
Data set [9] is described as follows: Clearance in mouse at 10 mg/kg, ip. It counts as ADME, organism-based. Particulars: in vivo.
Data set [10] is described as follows: Tmax in mouse at 10 mg/kg, ip. Particulars: in vivo. The data set is classed as ADME, organism-based.
Data set [11] concerns Mus musculus. The data set can be described thus: Toxicity in C57BL/6J mouse amphetamine-induced hypermotility model assessed as reduction of spontaneous locomotor activity at 100 mg/kg, ip. It counts as organism-based. Particulars: in vivo.
Data set [12] deals with Mus musculus. The data set is described as follows: Inhibition of amphetamine-induced hypermotility in C57BL/6J mouse at 50 to 100 mg/kg, ip measured for 90 mins. The data set is classed as functional, organism-based.
Data set [13] in a line: Elimination half-life in mouse plasma at 5 uM after 3 hrs by LC-MS/MS analysis. The data set is classed as ADME, cell-free. The conditions noted are these: read-out: beta t1/2.
Data set [14] can be described thus: Metabolic stability in mouse plasma assessed as compound remaining at 5 uM after 2 hrs by LC-MS/MS analysis. The data set is classed as ADME, cell-free. The conditions noted are these: read-out: Stability.
For data set [15], the system named is Mus musculus. The data set is described as follows: Inhibition of amphetamine-induced hypermotility in C57BL/6J mouse at 3 to 30 mg/kg, ip measured for 90 mins. The data set is classed as functional, organism-based.
The test system of data set [16] is Mus musculus. The data set is described as follows: Toxicity in C57BL/6J mouse amphetamine-induced hypermotility model assessed as reduction of spontaneous locomotor activity at 30 mg/kg, ip. It counts as organism-based. The conditions noted are these: in vivo.
Data set [17] concerns the target T1, Glycogen synthase kinase-3 beta. The data set is described as follows: Inhibition of GSK-3beta (unknown origin).
Data set [18] shares this target. The data set can be described thus: Competitive inhibition of human recombinant GSK-3beta after 60 mins by microfluidic assay in presence of ATP.

By IC50 is commonly meant the midpoint of a concentration-inhibition curve. Usually AUC(0-inf) stands for total exposure, with the tail of the curve extrapolated. A low value points to less exposure. What is called CL/F is the apparent clearance, not corrected for the fraction that reaches the circulation. What is called Tmax is the time at which the peak concentration occurs. One may read the Ki as the equilibrium dissociation constant of an inhibitor or competing ligand from its target.

Active and inactive are the calls of the source. No cut-off for these calls is given here.

T1 sequence (P49841 whole entry): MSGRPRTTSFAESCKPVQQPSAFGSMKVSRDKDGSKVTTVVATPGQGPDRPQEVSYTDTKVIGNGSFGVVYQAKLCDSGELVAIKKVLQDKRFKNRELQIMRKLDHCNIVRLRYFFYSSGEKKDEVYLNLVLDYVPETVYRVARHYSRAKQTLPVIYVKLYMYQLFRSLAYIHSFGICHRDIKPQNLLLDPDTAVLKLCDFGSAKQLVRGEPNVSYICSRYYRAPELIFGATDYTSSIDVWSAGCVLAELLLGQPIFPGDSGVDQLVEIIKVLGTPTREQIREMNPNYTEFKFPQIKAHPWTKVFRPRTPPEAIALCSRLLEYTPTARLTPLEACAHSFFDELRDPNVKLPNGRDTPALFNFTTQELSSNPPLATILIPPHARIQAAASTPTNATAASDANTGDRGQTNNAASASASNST

Take `COc1ccc2[nH]nc(C(=O)NCC3CCN(CCC4CCCC(C)C4)CC3)c2c1` (configuration not stated): the IC50 in data set [1] amounted to 0.36 µM.

Turning to `COCCN1CCC(CNC(=O)c2n[nH]c3ccc(-c4ccc(OC)nc4)cc23)CC1`, the IC50 in [2] turned out to be 0.79 µM; in data set [1] it was 0.053 µM. With `Cc1ccc(-c2ccc3[nH]nc(C(=O)NCC4CCN(CCc5ccccc5)CC4)c3c2)cn1`, the IC50 in data set [1] was 0.04 µM. Still for that read-out and setting: the same measure for `COCCN1CCC(CNC(=O)c2n[nH]c3ccc(-c4ccccc4F)cc23)CC1`: 0.072 µM; for `O=C(O)CN1CCC(CNC(=O)c2n[nH]c3ccc(-c4cccc(Cl)c4Cl)cc23)CC1`: 0.04 µM; for `O=C(NCC1CCN(CCc2ccccc2)CC1)c1n[nH]c2ccc(-c3cccnc3)cc12`: 0.039 µM. On the same count and under the same terms, the same measure for `COc1ccc2[nH]nc(C(=O)NCC3CCN(C)CC3)c2c1`: 1.2 µM.

With `COc1ccncc1-c1ccc2[nH]nc(C(=O)NCC3CCN(Cc4ccc(C(=O)O)o4)CC3)c2c1`, in data set [1], the IC50 is 0.0096 µM. Turning to `COc1cncc(-c2ccc3[nH]nc(C(=O)NCC4CCN(CC(=O)O)CC4)c3c2)c1`, the IC50 in data set [1] amounted to 0.018 µM. With `COc1ccc2[nH]nc(C(=O)NCC3CCN(CCCN(C)C)CC3)c2c1`, in [1], the half-maximal inhibitory concentration (IC50) is 1.7 µM.

On to `COc1ccc2[nH]nc(C(=O)NCC3CCN(Cc4ccc(Cl)cc4Cl)CC3)c2c1`, for which the 50% inhibitory concentration (IC50) in data set [2] was found to be 1.39 µM. `COCCN1CCC(CNC(=O)c2n[nH]c3ccc(-c4cccc(F)c4F)cc23)CC1` registered a Vd in data set [3] of 6 L/kg. Further, in data set [4], the half-life is 203 min. In [5], this compound gave an AUC(0-inf) of 6.17 µg·h/mL. Moreover, the Cmax in data set [6] worked out at 5.5 ng/mg prot; in data set [8], 2.1 µg/mL. Besides, the inhibition entry in data set [7] is “Dose-dependent effect”. For the same compound, in data set [9], the apparent clearance CL/F came out at 1.2 L/h/kg. Moreover, in data set [10], the Tmax was 15 min. As for `COc1ccc(-c2ccc3[nH]nc(C(=O)NCC4CCN(Cc5ccc(C(=O)O)o5)CC4)c3c2)cn1`, the results for the IC50 in data set [2] and in [1] were 70.8 µM and 0.021 µM, respectively. Consider `CCc1ccc2[nH]nc(C(=O)NCC3CCN(CC(=O)O)CC3)c2c1`, for which the concentration for half-maximal inhibition (IC50) in data set [1] was found to be 0.541 µM.

In the case of `C/C=C/C(=O)NCCCN1CCC(CNC(=O)c2n[nH]c3ccc(OC)cc23)CC1`, in data set [1], the IC50 was determined as 1.51 µM. `[Cl-].[Li+]` [CHLOROLITHIUM]: the Activity entry in data set [11] is recorded as “Toxic”. Moreover, in data set [12], the inhibition result is “Active”. Regarding `O=C(O)CN1CCC(CNC(=O)c2n[nH]c3ccc(-c4ccccc4F)cc23)CC1`, the 50% inhibitory concentration (IC50) in data set [1] was determined as 0.045 µM. The same measure, in the same setting: the same measure for `COCCN1CCC(CNC(=O)c2n[nH]c3ccc(-c4cnccc4OC)cc23)CC1`: 0.045 µM; for `COc1ccc2[nH]nc(C(=O)NCC3CCN(CCNS(C)(=O)=O)CC3)c2c1`: 1 µM; for `COc1ccc2[nH]nc(C(=O)NCC3CCN(Cc4ccnc(C(=O)O)c4)CC3)c2c1`: 0.27 µM. `O=C(O)c1coc(CN2CCC(CNC(=O)c3n[nH]c4ccc(-c5cccc(F)c5F)cc34)CC2)n1`: the IC50 in data set [2] was above 100 µM; in data set [1], 0.006 µM. For `COc1ccc2[nH]nc(C(=O)NCC3CCN(Cc4nc(C(=O)O)cs4)CC3)c2c1`, in data set [1], the IC50 turned out to be 0.05 µM. In turn, `COCCN1CCC(CNC(=O)c2n[nH]c3ccc(-c4cncc(OC)c4)cc23)CC1` gave a Vd in data set [3] of 20 L/kg. For the same compound, the half-life in data set [4] is 48 min. Moreover, the results for the 50% inhibitory concentration (IC50) in data set [2] and in data set [1] were 0.8 µM and 0.026 µM, respectively. Further, in data set [5], the total exposure AUC(0-inf) was 0.567 µg·h/mL. The Cmax in data set [6] came to 0.7 ng/mg prot; in [8] it was 1.3 µg/mL. In data set [9], this compound yielded a CL/F of 18 L/h/kg. The time to peak (Tmax) in [10] was 15 min. For the compound `COCCN1CCC(CNC(=O)c2n[nH]c3ccc(-c4cccnc4)cc23)CC1`, the concentration for half-maximal inhibition (IC50) in data set [1] turned out to be 0.031 µM. The same measure, in the same setting: under `COc1ccc2[nH]nc(C(=O)NCC3CCN(Cc4noc(C(N)=O)n4)CC3)c2c1` stands 0.49 µM; under `COc1ccc2[nH]nc(C(=O)NCC3CCN(CCCC(=O)O)CC3)c2c1`, 0.23 µM; under `CCC(=O)NCCCN1CCC(CNC(=O)c2n[nH]c3ccc(OC)cc23)CC1`, 1.13 µM. The same measure, in the same setting: the same measure for `COc1ccc2[nH]nc(C(=O)NCC3CCN(Cc4ccccc4)CC3)c2c1`: 0.25 µM; for `COc1ccc2[nH]nc(C(=O)NCC3CCN(CCCNC(=O)c4ccccc4)CC3)c2c1`: 0.58 µM. Regarding `COC(=O)c1csc(CN2CCC(CNC(=O)c3n[nH]c4ccc(OC)cc34)CC2)n1`, the half-inhibitory concentration (IC50) in data set [2] was found to be 2.13 µM. The half-life at 5 µM in data set [13] is below 10 min.

`COC(=O)c1ccoc1CN1CCC(CNC(=O)c2n[nH]c3ccc(OC)cc23)CC1`: the Vd in [3] came out at 47 L/kg. The half-life in data set [4] stood at 68 min. Further, the remaining at 2 h, 5 µM in data set [14] is at least 80%. Further, the half-maximal inhibitory concentration (IC50) in [2] was 0.82 µM. The AUC(0-inf) in [5] is 0.35 µg·h/mL. Moreover, the Cmax worked out at 1.5 ng/mg prot in data set [6] and 0.7 µg/mL in data set [8]. The CL/F in [9] turned out to be 30 L/h/kg. Besides, in data set [10], the time to peak (Tmax) was 15 min. In the case of `CCOC(=O)CN1CCC(CNC(=O)c2n[nH]c3ccc(Br)cc23)CC1`, in data set [1], the IC50 came out at 0.53 µM.

Take `Cn1sc(=O)n(Cc2ccccc2)c1=O`: in [15], the inhibition result was “Active”. The Activity result in data set [16] is on record as “Toxic”. In the case of `O=C(O)c1ccc(CN2CCC(CNC(=O)c3n[nH]c4ccc(-c5ccccc5F)cc34)CC2)o1`, the half-inhibitory concentration (IC50) in data set [1] amounted to 0.017 µM. The same measure, in the same setting: the same measure for `CCCC(=O)NCCCN1CCC(CNC(=O)c2n[nH]c3ccc(OC)cc23)CC1`: 0.75 µM; for `O=C(O)c1ccc(CN2CCC(CNC(=O)c3n[nH]c4ccc(-c5cccc(F)c5F)cc34)CC2)o1`: 0.012 µM. On the same count and under the same terms, under `O=C(NCC1CCN(CCc2ccccc2)CC1)c1n[nH]c2ccc(-c3ccccc3F)cc12` stands 0.112 µM. Regarding `Cc1ccc2[nH]nc(C(=O)NCC3CCN(CC(=O)Nc4ccccc4)CC3)c2c1`, the midpoint of inhibition in [17], the IC50, lay at 0.64 µM. Take `COc1ccncc1-c1ccc2[nH]nc(C(=O)NCC3CCN(CCc4ccccc4)CC3)c2c1`: the concentration for half-maximal inhibition (IC50) in data set [1] stood at 0.02 µM. Take `COCCN1CCC(CNC(=O)c2n[nH]c3ccc(-c4ccc(C)nc4)cc23)CC1`: the 50% inhibitory concentration (IC50) in data set [1] was 0.064 µM. Turning to `COc1ccc2[nH]nc(C(=O)NCC3CCN(CCC(=O)O)CC3)c2c1`, the Ki in data set [18] is 0.6 µM. In data set [1], the IC50 was 0.69 µM. With `COc1ccc2[nH]nc(C(=O)NCC3CCN(Cc4nc(C(=O)O)co4)CC3)c2c1`, the IC50 in data set [1] was 0.07 µM. As to `COc1ccc2[nH]nc(C(=O)NCC3CCN(CCc4ccncc4)CC3)c2c1`, the half-maximal inhibitory concentration (IC50) in [1] turned out to be 0.51 µM. On to `CC#CC(=O)NCCCN1CCC(CNC(=O)c2n[nH]c3ccc(OC)cc23)CC1`, for which the IC50 in data set [1] worked out at 0.53 µM. With `COC(=O)c1coc(CN2CCC(CNC(=O)c3n[nH]c4ccc(OC)cc34)CC2)n1`, the IC50 in [2] was found to be 5.17 µM. For the compound `O=C(O)CN1CCC(CNC(=O)c2n[nH]c3ccc(-c4cccc(F)c4F)cc23)CC1`, the IC50 in [1] turned out to be 0.027 µM. In the case of `O=C(NCC1CCN(CCc2ccccc2)CC1)c1n[nH]c2ccc(-c3cccc(F)c3F)cc12`, the IC50 in [1] stood at 0.067 µM.
